In patent US20190203253A1, “METHODS OF IDENTIFYING AND TREATING CANCER PATIENTS WITH AN EPHB6 DEFICIENCY” (University of Saskatchewan, priority 2016, published 2019):

Columns and labels:
[1] = tested on: BT20-NS and BT20-shB6 cells; assay: Cell survival (resazurin) with MET inhibitor, BT-20-derived cells; format: cell-based, human; conditions: increasing concentrations, 24 hours, vs BT20-NS (FIG. 10B)
Protocol: (§1) FIG. 10. Analysis of EPHB6-MET SL interaction. A and B, MDA-B6 and MDA-pc3 (A) or BT2O-NS and BT20-shB6 (B) cells were treated for 24 hours with the indicated concentrations of MET inhibitor, ARQ197, or with matching concentrations of DMSO, as a control. Treated cells were stained with Resazurin for 2 h at 37° C. and cell survival was measured using a microplate reader. Data represent the analysis of triplicates and are shown as a percentage relative to matching DMSO controls. (*) Statistical analyses: Student's t test, P<0.05 for indicated points. All analyses represent one of at least three independent experiments.
(§2) As mentioned above, a number of potential candidates that predominantly function in signal transduction (FIG. 2G), including DDR2, SRC, ROCK2 and MET (Table 1), were identified. Further testing with a MET inhibitor, ARQ197, was conducted to evaluate its SL properties. MDA-B6 and MDA-pc3 cells, as well as BT20-NS and BT20-shB6 cells, obtained using a method similar as described above in Example 1, were treated with increasing concentrations of ARQ197.

MDA-B6 and MDA-pc3 cells = assay: Cell survival (resazurin) with MET inhibitor, MDA-MB-231-derived cells; format: cell-based, human; conditions: increasing concentrations, 24 hours, vs MDA-B6 (FIG. 10A)
Protocol: as §1, §2

[2] = tested on: co-cultured MDA-pc3 and MDA-B6 cells; assay: Co-cultured colour-coded cells with MET inhibitor (flow cytometry); format: cell-based, human; conditions: 0.3 μM, 24, 32 and 48 hours, 1:1 co-culture (FIG. 11)
Protocol: FIG. 11. MET inhibition preferentially suppresses EPHB6-deficient cells. Hygro-selected combinations of MDA-B6-GFP and MDA-pc3-RFP (A and B) or MDA-B6-RFP and MDA-pc3-GFP (C and D) cells were seeded in 1:1 ratio and treated with 0.3 μM concentration of Met receptor inhibitor, ARQ197, or with a matching volume of DMSO, as a solvent control for 24, 32, and 48 hours. Treated cells were analyzed by flow cytometry. Bar graphs are based on the analyses of triplicates and represent a suppression of ARQ197-treated cell populations as a percentage relative to matching DMSO controls. (*) Statistical analyses: Student's t test, P<0.05 for indicated points. All analyses represent one of at least three independent experiments. The skilled person in the art will understand that the drawings, described herein, are for illustration purposes only. The drawings are not intended to limit the scope of the applicants' teachings in any way.
as §2

SRC = SRC (Homo sapiens, UniProt P12931); assay: SRC inhibition in cells (anti-SRC immunoprecipitation, anti-phospho-SRC Western blot); format: cell-based; conditions: MDA-B6 cells, 20 μM, 40 minutes, 10% FBS (FIG. 9B)
Sequence of SRC (P12931 whole entry): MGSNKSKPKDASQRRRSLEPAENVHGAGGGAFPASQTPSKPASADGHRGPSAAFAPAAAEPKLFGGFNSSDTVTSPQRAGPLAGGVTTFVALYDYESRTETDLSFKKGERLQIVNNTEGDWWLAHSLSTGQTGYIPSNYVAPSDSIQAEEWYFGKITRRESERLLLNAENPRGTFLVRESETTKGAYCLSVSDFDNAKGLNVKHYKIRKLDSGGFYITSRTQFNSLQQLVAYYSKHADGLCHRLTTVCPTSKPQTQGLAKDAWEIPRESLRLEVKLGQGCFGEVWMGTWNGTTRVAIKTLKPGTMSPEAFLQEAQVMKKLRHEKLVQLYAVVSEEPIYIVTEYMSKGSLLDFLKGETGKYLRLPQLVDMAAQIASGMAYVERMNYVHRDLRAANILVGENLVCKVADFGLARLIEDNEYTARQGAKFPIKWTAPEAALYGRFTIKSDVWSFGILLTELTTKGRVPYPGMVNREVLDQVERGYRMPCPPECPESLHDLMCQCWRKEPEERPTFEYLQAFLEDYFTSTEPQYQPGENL

[3] = tested on: MDA-pc3 and MDA-B6 cells (MDA-MB-231); assay: Drug sensitivity assay (resazurin), SRC inhibitors, MDA-MB-231-derived cells; format: cell-based, human; conditions: MDA-pc3 vs MDA-B6, increasing concentrations, 72 h, resazurin (FIG. 4A, 4B)
Protocol: FIG. 4. […] C. […] All experiments were performed at least three times.

[4] = tested on: BT-20 cells (EPHB6-targeting shRNA vs non-silencing shRNA); assay: Drug sensitivity assay (resazurin), SRC inhibitors, BT-20 cells with silenced EPHB6; format: cell-based, human; conditions: BT-20 with EPHB6-targeting shRNA vs non-silencing shRNA, 96 h (FIGS. 6A-6E)
Protocol: FIG. 6. SL relation between EPHB6 and SRC in BT-20 TNBC cells. A. Triple negative breast cancer cells, BT-20, were transduced with EPHB6-targeting shRNA (BT20-66-shRNA), or non-silencing shRNA (BT2O-NS). EPHB6 expression was analyzed by Western blotting with anti-EPHB6. Western blotting with anti-tubulin was used as a loading control. B. BT20-66-shRNA and BT2O-NS cells were cultured in 96-well plates with indicated concentrations of SU6656 or matching volumes of DMSO for 96 h. Cells were stained with resazurin and fluorescence was measured using a SpectraMax M5 plate reader to determine cell suppression. Five wells were analyzed per condition. […] C. […] Cells were stained with resazurin and fluorescence was measured using a SpectraMax M5 plate reader to determine cell suppression. Five wells were analyzed per condition. […] PI-stained cells were counted in at least 10 randomly captured frames. […] Stained cells were analyzed by flow cytometry and the FlowJo software. […]
MDA-MB-231 and BT-20 cell monolayers were incubated in 96-well plates for 72 h and 96 h, respectively, with indicated concentrations of KX2-391 or SU6656, or matching volumes of DMSO as a solvent control. Treated cells were stained using resazurin by following the manufacturer's instructions and fluorescence was measured using a SpectraMax M5 microplate reader.

SRC inhibition (phospho-SRC) (SRC) | Structure (SMILES) | cell survival of BT20-shB6 cells [1] | cell survival of EPHB6-deficient MDA-pc3 cells (MDA-B6 and MDA-pc3 cells) | suppression of cell populations in co-culture [2] | cell suppression relative to DMSO control, EPHB6-deficient vs EPHB6-expressing cells [3] | cell suppression after silencing of EPHB6 expression [4]
– | O=C1NC(=O)[C@@H](c2cn3c4c(cccc24)CCC3)[C@@H]1c1c[nH]c2ccccc12 [ARQ197] | decreased cell survival compared to BT-20 cells transduced with non-silencing shRNA | decreased cell survival compared to MDA-B6 cells | preferentially suppressed EPPBH6-deficient MDA-B6 cells | – | –
efficiently inhibited | CN(C)S(=O)(=O)c1ccc2c(c1)/C(=C/c1cc3c([nH]1)CCCC3)C(=O)N2 [SU6656] | – | – | – | preferentially suppressed EPHB6-deficient MDA-pc3 cells | strongly increased their suppression
